Values quoted from earlier work as cited in US20250064731A1, “A LIQUID PHARMACEUTICAL FORMULATION OF CLONIDINE HYDROCHLORIDE” (NOVUMGEN LIMITED, priority 2022, published 2025).

Settings: after oral administration

- absorption from the gastrointestinal tract: almost completely absorbed
- liver metabolism: rapid liver metabolism
Structure (SMILES): Clc1cccc(Cl)c1N=C1NCCN1 [clonidine, N-(2,6-dichlorophenyl)-4,5-dihydro-1H-imidazol-2-amine]
